Our source for the TGI values is PubChem BioAssay (NCI).

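96-well plates; 48 h exposure; 5 concentrations. Endpoints by linear interpolation between flanking doses. Not reached: highest tested concentration assigned. Definition used: TGI = concentration required for complete inhibition of growth.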 Some results are limits rather than exact numbers.

In general, TGI refers to the concentration giving total growth inhibition. The low end stands for more potent growth arrest, the high end for less potent growth arrest.

Holding throughout (experiment): DTP human tumour cell line panel, 48 h
Assay [1] concerns OVCAR-5 ovarian.
The subject of assay [2] is CAKI-1 renal.
Assay [3] relates to NCI-H522 lung.
Assay [4] concerns MDA-N.
In assay [5] the test system is COLO 205 colon.
Assay [6] deals with BT-549 breast.
The test system of assay [7] is HOP-92 NSCLC.
Assay [8] relates to OVCAR-3 ovarian.
Assay [9] concerns SK-OV-3 ovarian.
Assay [10] relates to SK-MEL-2 melanoma.

Consider `C1=C(c2ccccc2)C(N2CCOCC2)Oc2ccccc21` (configuration not stated), for which the TGI in assay [1], in assay [2], in assay [3], in [4], in assay [5] and in assay [6] was more than 100 µM throughout. In addition, the TGI in assay [7], in assay [8] and in [9] was more than 100 µM in each case.

On to `C1=NCCNCCNCCN=Cc2ccc(cc2)OCc2cccc(n2)COc2ccc1cc2`, for which the TGI in assay [1], in assay [2], in assay [4], in assay [5], in assay [6] and in assay [7] was more than 100 µM in each case. Besides, the TGI in assay [8], in [10] and in [9] was more than 100 µM in each case.

Take `N#CC1(C#N)C(C#N)(C#N)C1(C#N)C(N)=O`: the TGI in assay [1], in [2], in assay [3], in assay [4], in [5] and in [6] was more than 100 µM throughout. Moreover, the TGI in assay [7], in assay [10] and in assay [9] was more than 100 µM each time.

On to `O=C1NC(=O)c2ccccc2/C1=C/c1ccc2c(c1)OCO2`, for which the TGI was more than 100 µM in assay [1]; 98.4 µM in [2]; more than 100 µM in [3]; more than 100 µM in [4]; 50.8 µM in [6]; more than 100 µM in assay [7]. For the same compound, the values for the TGI in [8], in [10] and in assay [9] were 25 µM, 61.4 µM and more than 100 µM, respectively.

As to `CC(C)(C)C1CCC2c3c([nH]c4ccccc34)C3C(=O)N(c4ccc(C#N)cc4)C(=O)C3C2C1` (configuration not stated), the TGI in assay [1] was 56.8 µM; in assay [2], 61 µM; in assay [4], 26.9 µM; in assay [5], more than 100 µM; in assay [6] it was 65.5 µM; in [7], 22.6 µM. In addition, the TGI is 90.8 µM in assay [8], 30 µM in assay [10] and more than 100 µM in assay [9].

As for `Cc1nc2cc(F)c(F)cc2[nH]c1=O`, the TGI in assay [1], in assay [2], in assay [4], in assay [5], in [6] and in assay [7] was more than 100 µM in each case. The TGI in assay [8], in [10] and in [9] was more than 100 µM throughout.

Consider `Cn1cnc(N)c(N=O)c1=O`, for which the TGI in assay [1], in [2], in assay [3], in assay [4], in assay [5] and in assay [6] was more than 10 µM throughout. Besides, the TGI in assay [8], in assay [10] and in [9] was more than 10 µM each time.

For the compound `CC1C(NNC(N)=O)Oc2cc3c(cc2C1c1ccccc1O)OCO3` (configuration not stated), the concentration for total growth inhibition (TGI) in assay [1] is more than 100 µM; in assay [2], more than 100 µM; in assay [3], 58.6 µM; in [4], 76.7 µM; in assay [6], more than 100 µM; in assay [7], 50.4 µM. Further, the TGI in assay [8], in assay [10] and in [9] was more than 100 µM each time.

As to `COc1ccc(C#Cn2nnc3ccccc32)cc1`, the TGI in assay [1], in assay [2], in [3], in assay [4], in assay [5] and in assay [6] was more than 100 µM each time. For the same compound, the TGI in [7], in [8] and in [10] was more than 100 µM throughout.

Regarding `COC(=O)C1=C(OC(=O)/C(=C/c2ccccc2)c2ccc(OC)cc2)C(C(=O)OC)[C@@]2(O)[C@@H](C(=O)OC)[C@H](C)C[C@@H]1[C@@H]2C(=O)OC` (some centres not stated), the TGI in [1], in [2], in assay [3], in assay [4], in assay [5] and in [6] was more than 100 µM in each case. The TGI in assay [8], in assay [10] and in assay [9] was more than 100 µM each time.

As to `CC1CC[C@@]2(OC1)O[C@H]1[C@H](O)[C@H]3[C@@H]4CC[C@H]5C[C@@H](OC6OC(CO)C(OC7OC(CO)C(O)C(OC8OCC(O)C(O)C8O)C7OC7OC(CO)C(O)C(O)C7OC7OC(CO)C(O)C(O)C7O)C(O)C6O)[C@H](O)C[C@]5(C)[C@H]4CC[C@]3(C)[C@H]1[C@@H]2C` (some centres not stated), the TGI was more than 10 µM in assay [1]; more than 10 µM in assay [2]; 6.87 µM in [3]; more than 10 µM in assay [4]; more than 10 µM in assay [5]; more than 10 µM in assay [6]. Moreover, the TGI in assay [7], in assay [8] and in assay [10] was more than 10 µM in each case.

With `CC(C)(C)OC(=O)N/C(C=O)=C\C1CCCCC1`, the TGI in [1] is 42.3 µM; in assay [2], 46.9 µM; in assay [3], more than 100 µM; in assay [4], 50.3 µM; in assay [5], 36.8 µM; in assay [6], 70.6 µM. In addition, the TGI is 73.1 µM in [8], 54.9 µM in assay [10] and more than 100 µM in [9].

Consider `CNc1nnc(CCCCCCCCc2nnc(NC)o2)o1`, for which the TGI in [1] was more than 100 µM; in assay [2] it was 31.3 µM; in assay [4] it was more than 100 µM; in [5] it was more than 100 µM; in [6], more than 100 µM; in [7] it was more than 100 µM. The TGI in assay [8] is 44.9 µM; in assay [10], more than 100 µM; in assay [9] it was more than 100 µM.
